Here are results for one molecule from patent publication US20250012802A1, “SYSTEMS AND METHODS FOR PREDICTING RESPONSE TO ORAL MINOXIDIL FOR THE TREATMENT OF ANDROGENETIC ALOPECIA” (Follea International, priority 2023, published 2025).

The assay concerns androgenetic alopecia. In words: clinical response to oral minoxidil for androgenetic alopecia. The assay is classed as in vivo, human. On the set-up: Response: scale not given here. To be noted: for subjects who responded to oral minoxidil: 5 mg men and 1.25 mg women. From the text:
Clinical trials with minoxidil for the treatment of androgenetic alopecia have shown statistically significant results for maintenance and growth of hair. […] As described herein, the assessment of hair re-growth is based on one or more of the following parameters: patient self assessment, physician assessment using a standardized scale, global photography assessment, hair diameter measurement, average hair length measurement, average hair diameter measurement, and hair weight measurements. The current inventions provide a method of using biochemical variations in minoxidil sulfotransferase activity as a drug response marker for oral and/or topical minoxidil treatment of androgenetic alopecia. Based on the minoxidil sulfotransferase activity level, the method disclosed herein allows a physician or the patient to select the appropriate treatment and dosage thereof for the treatment of androgenetic alopecia.
In one embodiment, the test is conducted by placing a hair follicle in an assay. The hair follicle may be collected prior to minoxidil therapy, or after start of minoxidil therapy. The follicle is placed in a solution containing minoxidil. The assay is then conducted as described above, and is examined to determine whether there is a SULT1A1 response. The results are then used as a predictor for patients who will respond well to minoxidil, and who will respond better to oral minoxidil versus topical application of minoxidil. […] The first column is optical density resulting from the colorimetric testing. The second column indicates response.
A total of 123 subjects recruited. Overall among subjects with OD<0.37 85% responded to oral minoxidil (5 mg men and 1.25 mg women). Overall among subjects with OD>0.37 43% responded to oral minoxidil (5 mg men and 1.25 mg women). This was statistically significant p=0.0088 (Fischer Exact Test). In this cohort, oral minoxidil only worked on 42% of women and 73% of men.

Where “and” joins values, the source holds several entries; their conditions need not be identical. Identical values can stand only once.

Consider `Nc1cc(N2CCCCC2)nc(N)[n+]1[O-]` [minoxidil], for which the “share of cohort on whom oral minoxidil worked” value (men) came to 73% and the “share of cohort on whom oral minoxidil worked” value (women) is 42%. Also, where the note is “response of the individual patient with the OD of the same line, 0/1 not defined in the patent”, the Response is 1 (15×) and 0 (11×). The “subjects who responded to oral minoxidil” value worked out at 85% (subjects with OD<0.37) and 43% (subjects with OD>0.37).
